One assay deals with T1, 14-3-3 protein gamma (Homo sapiens, UniProt P61981).
T1 sequence (P61981 whole entry): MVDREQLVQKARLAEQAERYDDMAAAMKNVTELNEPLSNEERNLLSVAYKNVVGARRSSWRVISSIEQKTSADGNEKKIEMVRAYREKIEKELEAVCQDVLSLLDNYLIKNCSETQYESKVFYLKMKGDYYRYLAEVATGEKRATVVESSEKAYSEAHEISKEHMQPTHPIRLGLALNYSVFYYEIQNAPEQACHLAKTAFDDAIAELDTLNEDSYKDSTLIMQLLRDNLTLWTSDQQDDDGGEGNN
Nature of the assay: modulators of 14-3-3 gamma client binding – dose response (AID 711). Type of assay: functional.

The next assay addresses T2, ORF 73 (Human herpesvirus 8, UniProt O40947).
T2 sequence (O40947 whole entry): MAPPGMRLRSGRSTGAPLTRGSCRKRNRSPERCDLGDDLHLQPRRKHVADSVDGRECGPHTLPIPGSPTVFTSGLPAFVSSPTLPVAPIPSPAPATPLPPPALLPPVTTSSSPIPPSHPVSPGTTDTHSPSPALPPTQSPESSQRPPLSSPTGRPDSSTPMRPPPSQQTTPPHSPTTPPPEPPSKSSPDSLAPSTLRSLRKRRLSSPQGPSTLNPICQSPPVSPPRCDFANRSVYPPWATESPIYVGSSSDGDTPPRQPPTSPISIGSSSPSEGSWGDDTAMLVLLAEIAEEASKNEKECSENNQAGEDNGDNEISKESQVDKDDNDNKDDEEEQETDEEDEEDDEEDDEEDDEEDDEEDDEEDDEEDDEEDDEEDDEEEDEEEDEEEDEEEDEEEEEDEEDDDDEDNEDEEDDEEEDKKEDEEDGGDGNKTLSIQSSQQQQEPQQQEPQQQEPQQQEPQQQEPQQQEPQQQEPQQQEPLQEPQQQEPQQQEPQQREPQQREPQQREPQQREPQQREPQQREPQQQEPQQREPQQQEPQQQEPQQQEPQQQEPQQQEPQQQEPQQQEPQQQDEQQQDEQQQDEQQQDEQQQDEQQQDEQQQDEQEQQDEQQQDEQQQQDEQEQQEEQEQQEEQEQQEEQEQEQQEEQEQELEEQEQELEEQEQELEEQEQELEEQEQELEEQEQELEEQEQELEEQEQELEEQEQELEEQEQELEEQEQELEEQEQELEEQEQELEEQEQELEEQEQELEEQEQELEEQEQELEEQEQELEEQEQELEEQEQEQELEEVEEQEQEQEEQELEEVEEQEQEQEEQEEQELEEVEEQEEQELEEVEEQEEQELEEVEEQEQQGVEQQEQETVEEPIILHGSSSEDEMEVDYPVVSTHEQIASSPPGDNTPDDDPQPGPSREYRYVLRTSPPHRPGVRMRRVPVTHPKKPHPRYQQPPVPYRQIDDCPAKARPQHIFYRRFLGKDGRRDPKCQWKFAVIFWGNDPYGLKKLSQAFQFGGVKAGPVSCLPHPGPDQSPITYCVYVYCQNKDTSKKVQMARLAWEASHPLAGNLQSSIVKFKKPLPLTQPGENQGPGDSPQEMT
Nature of the assay: KSHV LANA DNA-binding disruption – biochemical, fluorescence polarization, cherry-picked samples, dose response (AID 504725).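 Note: fluorescence polarization of a labeled DNA duplex reporting LANA DNA binding; potency is for inhibitors that block LANA binding to the DNA.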 More on the design: species or system Human gammaherpesvirus 8. (In general: Fluorescence polarisation rises when a labelled molecule tumbles more slowly, as on binding a larger partner.)

For a further assay, the target named is Keap1/Nrf2 (Homo sapiens, UniProt Q14145). In words: disruptors of Keap1 binding to Nrf2 peptide – biochemical, fluorescence polarization, cherry-picked samples, dose response (AID 588683).
Chain of Keap1/Nrf2 (Q16236 whole entry): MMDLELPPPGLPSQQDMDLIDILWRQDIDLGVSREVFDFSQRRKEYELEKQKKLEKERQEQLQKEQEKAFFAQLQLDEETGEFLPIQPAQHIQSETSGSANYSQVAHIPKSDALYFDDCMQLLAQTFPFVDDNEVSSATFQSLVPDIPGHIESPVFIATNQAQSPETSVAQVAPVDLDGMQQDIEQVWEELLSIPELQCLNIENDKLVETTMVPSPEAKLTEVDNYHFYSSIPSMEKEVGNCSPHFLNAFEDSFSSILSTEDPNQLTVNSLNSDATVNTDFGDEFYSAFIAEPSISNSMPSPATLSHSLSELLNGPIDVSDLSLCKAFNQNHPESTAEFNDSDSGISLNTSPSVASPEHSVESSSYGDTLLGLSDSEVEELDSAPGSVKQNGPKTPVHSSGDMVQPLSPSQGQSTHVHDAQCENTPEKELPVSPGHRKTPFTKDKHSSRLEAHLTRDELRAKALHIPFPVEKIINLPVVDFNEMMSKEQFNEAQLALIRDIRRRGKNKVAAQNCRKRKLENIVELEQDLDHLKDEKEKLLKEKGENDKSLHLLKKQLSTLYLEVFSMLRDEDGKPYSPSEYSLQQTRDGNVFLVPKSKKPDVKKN
Chain of Keap1/Nrf2 (Q14145 whole entry): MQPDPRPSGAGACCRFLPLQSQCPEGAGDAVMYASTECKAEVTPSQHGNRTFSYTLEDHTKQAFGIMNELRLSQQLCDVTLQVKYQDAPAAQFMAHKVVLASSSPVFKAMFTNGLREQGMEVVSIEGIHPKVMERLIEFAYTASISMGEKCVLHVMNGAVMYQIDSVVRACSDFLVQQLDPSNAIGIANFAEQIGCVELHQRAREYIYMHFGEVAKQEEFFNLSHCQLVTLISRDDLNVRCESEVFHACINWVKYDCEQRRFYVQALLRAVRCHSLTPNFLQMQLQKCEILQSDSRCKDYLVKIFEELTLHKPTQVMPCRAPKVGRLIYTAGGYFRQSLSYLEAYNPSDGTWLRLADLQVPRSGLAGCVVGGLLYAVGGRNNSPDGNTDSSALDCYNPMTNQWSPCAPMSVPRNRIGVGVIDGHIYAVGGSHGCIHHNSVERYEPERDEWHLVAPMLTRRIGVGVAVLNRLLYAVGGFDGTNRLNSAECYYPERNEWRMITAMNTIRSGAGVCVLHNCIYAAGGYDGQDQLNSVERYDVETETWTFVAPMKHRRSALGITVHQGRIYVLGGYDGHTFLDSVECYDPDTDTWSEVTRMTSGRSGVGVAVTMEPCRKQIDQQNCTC
Assay [1] can be described thus: viability of PTEN-deleted HCT116 cells – cell-based, HCT116 PTEN knockout, dose response (AID 1047).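 Note: HCT116 colon tumor cells with PTEN knocked out; cells exposed to compound for 60 hours before readout; potency for loss of cell viability measured by luminescence.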 The format is functional.
Assay [2] is described as follows: viability of HCT116 lacking mutant beta-catenin – cell-based, human colon tumor, dose response (AID 1045).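 Note: HCT116 colon tumor cells with beta catenin knocked out; cells exposed to compound for 60 hours.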 Type of assay: functional.
The nature of assay [3]: THP-1 cell cytotoxicity, dose response, cytotoxicity control for non-replicating M. tuberculosis project (AID 489025). Type of assay: functional.
Assay [4] deals with T3, Ubiquitin-conjugating enzyme E2 N (Homo sapiens, UniProt P61088).
T3 sequence (P61088 whole entry): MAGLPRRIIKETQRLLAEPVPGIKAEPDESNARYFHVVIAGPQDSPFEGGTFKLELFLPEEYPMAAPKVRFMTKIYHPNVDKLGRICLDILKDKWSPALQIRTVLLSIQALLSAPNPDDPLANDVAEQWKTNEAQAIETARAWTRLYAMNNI
Type of assay: functional.

The nature of assay [5]: Vero E6 cell cytotoxicity, dose response, cytotoxicity control for non-replicating M. tuberculosis project, secondary assay (AID 492998). The format is functional, VeroE6. Conditions: Vero C1008.
The next assay in a line: cells. Type of assay: functional.
The next assay has as its system A-375. Nature of the assay: proliferation inhibition in MITF-low A375 cells – cell-based, cherry-pick samples, set 2, counter-screen for MITF modulator project, dose response (AID 540335). Type of assay: functional. Conditions: Homo sapiens.
For assay [6], the system named is HEK293. Nature of the assay: cells. The format is functional, cell-based. Conditions: Homo sapiens.
For assay [7], the target named is T4, Nuclear receptor subfamily 0 group B member 1 (Homo sapiens, UniProt P51843).
T4 sequence (P51843 whole entry): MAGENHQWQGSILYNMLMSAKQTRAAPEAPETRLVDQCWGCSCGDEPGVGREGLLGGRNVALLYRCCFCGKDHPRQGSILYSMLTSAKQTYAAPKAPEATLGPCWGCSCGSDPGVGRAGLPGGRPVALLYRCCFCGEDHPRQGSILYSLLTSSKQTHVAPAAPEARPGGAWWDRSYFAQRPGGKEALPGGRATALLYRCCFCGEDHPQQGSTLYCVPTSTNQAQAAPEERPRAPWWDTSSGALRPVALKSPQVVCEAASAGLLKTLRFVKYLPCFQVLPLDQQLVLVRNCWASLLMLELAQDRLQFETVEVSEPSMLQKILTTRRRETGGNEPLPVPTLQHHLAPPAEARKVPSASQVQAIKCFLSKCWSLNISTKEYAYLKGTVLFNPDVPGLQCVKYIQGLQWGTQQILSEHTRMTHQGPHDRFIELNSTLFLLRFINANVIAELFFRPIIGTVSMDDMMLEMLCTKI
Nature of the assay: Luminescence-based cell-based high throughput dose response assay for inhibitors of the orphan nuclear receptor subfamily 0, group B, member 1 (DAX1; NR0B1). [Related pubchem assays (depositor defined):AID504766, AID504790]. Type of assay: functional.

Assay [8] has as its target T5, DNA repair and recombination protein RAD54-like (Homo sapiens, UniProt Q92698).
T5 sequence (Q92698 whole entry): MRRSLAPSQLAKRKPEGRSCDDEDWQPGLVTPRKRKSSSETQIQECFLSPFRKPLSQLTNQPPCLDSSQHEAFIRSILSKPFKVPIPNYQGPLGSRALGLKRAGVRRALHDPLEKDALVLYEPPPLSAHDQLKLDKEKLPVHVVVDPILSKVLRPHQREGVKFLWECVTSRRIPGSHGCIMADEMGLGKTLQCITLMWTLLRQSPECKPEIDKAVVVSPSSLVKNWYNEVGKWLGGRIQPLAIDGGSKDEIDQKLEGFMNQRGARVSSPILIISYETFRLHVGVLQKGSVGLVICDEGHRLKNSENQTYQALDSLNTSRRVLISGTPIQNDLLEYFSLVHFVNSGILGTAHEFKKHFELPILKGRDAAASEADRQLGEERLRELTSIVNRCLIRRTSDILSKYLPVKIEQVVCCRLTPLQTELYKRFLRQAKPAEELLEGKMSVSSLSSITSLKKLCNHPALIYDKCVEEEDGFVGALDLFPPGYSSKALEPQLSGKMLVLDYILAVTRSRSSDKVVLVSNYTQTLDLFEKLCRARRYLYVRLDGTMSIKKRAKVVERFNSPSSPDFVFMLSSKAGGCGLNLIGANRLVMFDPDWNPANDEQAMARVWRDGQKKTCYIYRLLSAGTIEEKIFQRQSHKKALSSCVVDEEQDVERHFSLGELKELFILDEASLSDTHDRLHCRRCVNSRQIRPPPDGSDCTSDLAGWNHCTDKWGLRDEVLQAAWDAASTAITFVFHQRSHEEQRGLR
Nature of the assay: RAD54 Holliday junction migration blockers – biochemical, fluorescence, cherry-picked samples, dose series, confirmation (AID 651657). The format is functional.

The subject of assay [9] is HEK293. In words: cells. Conditions: Homo sapiens.
Assay [10] relates to HEK293. In words: cells. Conditions: Homo sapiens. This is another data set of the same source.
In assay [11] the target is E3 ubiquitin-protein ligase Mdm2 (Homo sapiens, UniProt Q00987). Nature of the assay: MDM2-luc reporter signal enhancers, multi-concentration potency testing, MDM2 ubiquitin-protein ligase inhibitor program, whole-cell format, luminescence detection, 384-well microplate (AID 1394).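 Note: MDM2 E3 inhibitors raise luminescence so EC50 is for signal enhancement.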 The format is functional.
Chain of E3 ubiquitin-protein ligase Mdm2 (Q00987 whole entry): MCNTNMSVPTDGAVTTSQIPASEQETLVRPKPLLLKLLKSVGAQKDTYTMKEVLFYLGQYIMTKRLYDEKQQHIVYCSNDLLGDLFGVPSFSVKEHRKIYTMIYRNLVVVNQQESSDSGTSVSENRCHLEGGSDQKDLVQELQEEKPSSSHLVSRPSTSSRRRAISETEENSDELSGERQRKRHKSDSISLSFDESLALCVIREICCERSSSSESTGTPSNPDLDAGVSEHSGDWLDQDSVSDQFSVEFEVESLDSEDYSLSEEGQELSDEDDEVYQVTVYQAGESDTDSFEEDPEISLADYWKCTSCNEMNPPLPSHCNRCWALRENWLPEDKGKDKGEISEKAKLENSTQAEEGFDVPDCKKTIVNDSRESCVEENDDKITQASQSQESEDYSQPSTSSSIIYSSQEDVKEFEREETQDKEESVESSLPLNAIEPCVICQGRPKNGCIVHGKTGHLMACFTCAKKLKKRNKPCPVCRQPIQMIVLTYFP
For assay [12], the target named is T6, Microphthalmia-associated transcription factor (Homo sapiens, UniProt O75030).
T6 sequence (O75030 whole entry): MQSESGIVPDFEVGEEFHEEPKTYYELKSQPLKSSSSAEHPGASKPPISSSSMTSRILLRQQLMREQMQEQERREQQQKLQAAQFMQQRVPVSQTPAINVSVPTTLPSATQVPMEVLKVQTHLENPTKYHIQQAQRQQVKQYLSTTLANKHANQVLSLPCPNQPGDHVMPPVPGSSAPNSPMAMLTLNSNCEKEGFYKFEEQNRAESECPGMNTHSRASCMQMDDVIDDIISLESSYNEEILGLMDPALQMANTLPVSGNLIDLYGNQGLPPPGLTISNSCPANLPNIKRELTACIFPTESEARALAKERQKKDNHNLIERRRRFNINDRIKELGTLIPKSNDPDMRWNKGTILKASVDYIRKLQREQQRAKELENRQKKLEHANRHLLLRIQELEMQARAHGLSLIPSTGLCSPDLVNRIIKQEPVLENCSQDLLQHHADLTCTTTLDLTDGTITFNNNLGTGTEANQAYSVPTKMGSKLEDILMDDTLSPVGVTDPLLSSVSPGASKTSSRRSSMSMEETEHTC
Nature of the assay: reducers of TRPM1 reporter luminescence, concentration series – cell-based, SK-MEL-5, cherry-picked, set 3, MITF inhibitor project, dose response (AID 493073).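 Note: SK-MEL-5 melanoma cells with luciferase driven by the MITF target TRPM1 promoter.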 Type of assay: functional.

A short description of assay [13]: blockers of HIV-1 envelope-mediated cell-cell fusion – cherry-pick, dose response (AID 652057). The format is functional, cell-based.
Assay [14] in a line: viability loss in CEM21 cells – cell-based, CellTiter-Glo luminescence, cherry-picked, cytotoxicity control for viral fusion inhibitor project, dose response (AID 652042).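 Note: potency for signal decrease meaning cytotoxicity.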 Type of assay: functional. Background: Cellular ATP, detected with luciferase, serves as a proxy for viable cell number.
A short description of assay [15]: blockers of HIV-1 ZM109 envelope-driven cell-cell fusion – HeLa effector, CEM target cells, luciferase, cherry-pick, dose response (AID 652058).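 Note: luciferase signal from HIV-1 Env mediated cell-cell fusion of effector and target cells.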 The format is functional, cell-based.
Assay [16] is described as follows: off-target signal loss in HeLa-CEM21 co-culture – HeLa F-luc CTL cells, cherry-picked, counter-screen for HIV-1 Env fusion inhibitor project, dose response (AID 652040).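 Note: potency for signal decrease marking cytotoxic or nonspecific inhibition.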 The format is functional, cell-based.
Assay [17] in a line: HIV-1 AD8 envelope cell-cell fusion blockers – cherry-pick, dose response (AID 652062).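 Note: luciferase signal from cell-cell fusion driven by HIV-1 clade B AD8 Env; potency is for inhibitors of fusion seen as a drop in luminescence.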 The format is functional, cell-based.

Usually IC50 stands for the concentration that gives 50% inhibition. One may read the AC50 as the concentration at which the activity in the assay is half-maximal. In general, EC50 refers to the concentration that produces a half-maximal response. The term CC50 denotes the concentration at which the toxic effect on the cells reaches its halfway point.

Calls of active or inactive are those of the source. Some results are limits rather than exact numbers.

Turning to `O=C(O)c1ccccc1C1=Nc2ccc(O)cc2Oc2cc(O)ccc21`, the IC50 on 14-3-3 protein gamma was 5.02 µM (active). The values for the AC50 on ORF 73 and at Keap1/Nrf2 were 5.76 µM (active) and 4.97 µM (active), respectively.
For the compound `Cc1ccc2nc(N(CCCN(C)C)C(=O)c3ccc4c(c3)CCCC4)sc2c1`, the figures for the EC50 in [1] and in [2] were 15.2 µM (active) and 12.1 µM (active), respectively. Moreover, the figures for the 50% cytotoxic concentration (CC50) in [3] and in [5] were 16.5 µM (active) and > 20 µM (active), respectively. The IC50 in assay [4] was > 20 µM (inactive); in the assay “cells”, 22.8 µM (active). Further, the AC50 in the assay with A-375 was 19.7 µM (active).
On to `CCCN(CCC)CCCNC(=O)c1cc2c(=O)n(C)c3ccccc3c2n1C`, for which the IC50 in the assay on HEK293 [6] was 24.7 µM (inactive); in assay [7] it was > 67.5 µM (inactive). The AC50 in assay [8] was 36.8 µM (active).
As for `Cc1ccc(CCNC(=O)CC2Oc3ccc(C)cc3NC2=O)cc1` (centres undefined), the IC50 (with HEK293 [6]; in assay [7]) was > 67.5 µM (inactive) each time.
As for `COc1ccc(C2CC(C(F)(F)F)n3ncc(C(=O)NCC4CCCO4)c3N2)cc1OC` (centres undefined), the EC50 with HEK293 [9] and with HEK293 [10] was > 59.6 µM (inactive) in each case.
As for `O=C1NC(=O)N(CCc2ccc(F)cc2)C(=O)/C1=C\C=C\c1ccccc1`, in assay [11], the EC50 was 0.13 µM (not active). In addition, the concentration at half-maximal activity (AC50) in assay [12] is 8.26 µM (active); with A-375, 33.6 µM (active).
In the case of `Fc1ccc(Nc2nc(-c3cccnc3)cs2)cc1`, the IC50 (with HEK293 [6]; in assay [7]) was > 67.5 µM (inactive) each time.
For `COc1ccc(CC(N)c2csc(NC(=O)Nc3ccccc3Cc3ccccc3)n2)cc1` (centres undefined), the AC50 was < 0.26 µM (active) in [13]; 12.4 µM (active) in [14]; 0.304 µM (active) in assay [15]; 0.381 µM (active) in [16]; 0.832 µM (active) in assay [17]. The EC50 in the assay with HEK293 [9] and with HEK293 [10] was > 59.7 µM (inactive) each time.

The values above are taken from ChEMBL document CHEMBL1201862, “PubChem BioAssay data set” (2004).
